Our source for the IC50 values is US20240360151A1 (SANOFI, priority 2023, published 2024).

Broadly, the IC50 is the point on the concentration scale where inhibition reaches its midpoint.

Structures can show the parent of a compound that is named as a salt.

One assay deals with T1, NLRP3 inflammasome (Homo sapiens, UniProt Q96P20).
T1 construct: endogenous in cells; host or cells: THP-1 monocytic cells
Description: IL-1β secretion assay (NLRP3 IC50) in LPS-primed, nigericin-activated THP-1 cells, HTRF. Type of assay: cell-based. The settings on record: monocytic THP-1 cells; LPS 10 ng/mL 3 h priming, then compound + nigericin 10 μM 2 h; relative IC50, 10 concentrations, geometric mean. The method in brief:
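THP-1 cells primed with LPS 10 ng/mL for 3 h at 37° C., then compound (10-point 1:3 dilution, 0.1% DMSO) added with 10 μM nigericin for 2 h. Supernatant IL-1β measured by HTRF; relative IC50 from a 4-parameter logistic fit, reported as geometric mean.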

The subject of assay [1] is NF-kB pathway (TNF-α secretion by THP-1 cells). Nature of the assay: TNF-α secretion assay in LPS-stimulated THP-1 cells, Lumit immunoassay. The assay is classed as cell-based, human. The settings on record: Homo sapiens, THP-1, 3 h, monocytic THP-1 cells, LPS 10 ng/mL, relative IC50, 10 concentrations, geometric mean. The method in brief: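 THP-1 monocytes in RPMI with 5% FBS were treated with compound, then stimulated with 10 ng/mL LPS for 3 h. Secreted TNF-α was measured in-plate by Lumit immunoassay. Relative IC50 came from 10-concentration curves fitted with a 4-parameter logistic model, reported as geometric mean.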

T1 sequence (Q96P20 whole entry): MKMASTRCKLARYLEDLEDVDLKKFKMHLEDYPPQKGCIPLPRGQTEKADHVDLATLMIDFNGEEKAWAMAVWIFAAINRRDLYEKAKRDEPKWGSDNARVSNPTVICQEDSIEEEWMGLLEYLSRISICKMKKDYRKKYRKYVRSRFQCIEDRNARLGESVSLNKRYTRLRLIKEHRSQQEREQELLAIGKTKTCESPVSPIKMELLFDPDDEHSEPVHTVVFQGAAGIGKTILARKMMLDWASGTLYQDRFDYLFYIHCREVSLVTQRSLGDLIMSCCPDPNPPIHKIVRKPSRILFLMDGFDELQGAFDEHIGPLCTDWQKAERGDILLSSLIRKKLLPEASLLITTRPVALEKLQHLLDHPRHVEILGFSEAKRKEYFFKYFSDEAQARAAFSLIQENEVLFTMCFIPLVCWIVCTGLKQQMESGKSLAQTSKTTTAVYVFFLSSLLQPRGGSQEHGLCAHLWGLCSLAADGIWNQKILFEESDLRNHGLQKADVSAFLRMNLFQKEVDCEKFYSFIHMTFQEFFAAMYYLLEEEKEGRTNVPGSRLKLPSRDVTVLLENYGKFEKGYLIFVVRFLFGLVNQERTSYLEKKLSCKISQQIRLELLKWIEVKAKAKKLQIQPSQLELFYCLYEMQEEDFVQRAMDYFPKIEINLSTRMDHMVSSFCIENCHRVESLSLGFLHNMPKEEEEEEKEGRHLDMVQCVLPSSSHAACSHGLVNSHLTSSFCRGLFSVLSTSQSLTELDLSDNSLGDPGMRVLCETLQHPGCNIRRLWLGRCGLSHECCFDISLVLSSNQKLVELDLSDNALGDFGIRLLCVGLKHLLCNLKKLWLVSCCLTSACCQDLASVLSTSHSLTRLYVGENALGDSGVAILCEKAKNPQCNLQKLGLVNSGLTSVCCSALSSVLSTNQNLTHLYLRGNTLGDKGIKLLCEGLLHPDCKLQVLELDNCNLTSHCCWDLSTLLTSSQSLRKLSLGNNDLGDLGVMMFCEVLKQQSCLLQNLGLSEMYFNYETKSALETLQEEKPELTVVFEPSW

Take `Cc1cc(C(F)(F)F)cc(O)c1-c1ccc(N2CC[C@H]3CNC[C@H]3C2=O)nn1` (racemic) [Example 264, rac-(3aS,7aR)-5-[6-[2-hydroxy-6-methyl-4-(trifluoromethyl)phenyl]pyridazin-3-yl]-2,3,3a,6,7,7a-hexahydro-1H-pyrrolo[3,4-c]pyridin-4-one, hydrochloride]: the results for the IC50 (at NLRP3 inflammasome; in assay [1]) were 69 nM and more than 10000 nM, respectively.
Consider `Cc1cc(C)c(-c2ccc(N3CCNC4(CCOC4)C3)nn2)c(O)c1` (centres unmarked) [Example 196, 3,5-dimethyl-2-[6-(2-oxa-6,9-diazaspiro[4.5]decan-9-yl)pyridazin-3-yl]phenol], for which the IC50 at NLRP3 inflammasome is 452 nM; in assay [1] it was more than 10000 nM.
Take `CCc1cccc(O)c1-c1ccc(N2CCO[C@@H]3CCN(C)C[C@@H]32)nn1` [Example 358, 2-[6-[(4aS,8aR)-6-methyl-3,4a,5,7,8,8a-hexahydro-2H-pyrido[4,3-b][1,4]oxazin-4-yl]pyridazin-3-yl]-3-ethyl-phenol]: the IC50 at NLRP3 inflammasome was 11 nM; in assay [1], more than 10000 nM.
Regarding `Cc1cc(C)c(-c2ccc(N3CCC[C@H](O)C3)nn2)c(O)c1` [Example 67, (3S)-1-[6-(2-hydroxy-4,6-dimethyl-phenyl)pyridazin-3-yl]piperidin-3-ol], the IC50 is 306 nM at NLRP3 inflammasome and more than 10000 nM in assay [1].
As for `CCN1CC[C@H]2OCCN(c3ccc(-c4c(C)cc(C(F)(F)F)cc4O)nn3)[C@H]2C1` (single isomer, unassigned) [Example 256], the IC50 on NLRP3 inflammasome is 1 nM; in assay [1], more than 10000 nM.
In the case of `Cc1cc(C(F)(F)F)cc(O)c1-c1ccc(N2CCO[C@H]3CCN(C)C[C@H]32)nn1` (single isomer, unassigned) [Example 261], the values for the half-inhibitory concentration (IC50) (at NLRP3 inflammasome; in assay [1]) were 1 nM and more than 10000 nM, respectively.
With `CC(=O)NC[C@@H]1CCCN(c2ccc(-c3c(C)cc(C(F)(F)F)cc3O)nn2)C1` [Example 164, N-[[(3S)-1-[6-[2-hydroxy-6-methyl-4-(trifluoromethyl)phenyl]pyridazin-3-yl]-3-piperidyl]methyl]acetamide], the results for the IC50 (on NLRP3 inflammasome; in assay [1]) were 81 nM and more than 10000 nM, respectively.
With `Cc1cccc(O)c1-c1ccc(N2CCO[C@H](CO)C2)nn1` [Example 56, 2-[6-[(2S)-2-(hydroxymethyl)morpholin-4-yl]pyridazin-3-yl]-3-methyl-phenol], the values for the concentration for half-maximal inhibition (IC50) (on NLRP3 inflammasome; in assay [1]) were 111 nM and more than 10000 nM, respectively.
As for `CN(C)C[C@@H]1CCN(c2ccc(-c3c(O)cc(Cl)cc3Cl)nn2)C1` [Example 40, 3,5-dichloro-2-[6-[(3S)-3-[(dimethylamino)methyl]pyrrolidin-1-yl]pyridazin-3-yl]phenol], the IC50 on NLRP3 inflammasome was 420 nM; in assay [1] it was more than 10000 nM.
Turning to `Cc1cc(C(F)(F)F)cc(O)c1-c1ccc(N2CCO[C@H](CF)C2)nn1` (single isomer, unassigned) [Example 284], the figures for the half-inhibitory concentration (IC50) (at NLRP3 inflammasome; in assay [1]) were 87 nM and more than 10000 nM, respectively.
As for `COC[C@@H]1CN(c2ccc(-c3c(O)cc(Cl)cc3Cl)nn2)CCO1` [Example 35, 3,5-dichloro-2-[6-[(2S)-2-(methoxymethyl)morpholin-4-yl]pyridazin-3-yl]phenol], the IC50 was 501 nM on NLRP3 inflammasome and more than 10000 nM in assay [1].
For `Cc1cc(C(F)(F)F)cc(O)c1-c1ccc(N2C[C@H](CO)O[C@@H](CO)C2)nn1` [Example 200, 2-[6-[(2R,6R)-2,6-bis(hydroxymethyl)morpholin-4-yl]pyridazin-3-yl]-3-methyl-5-(trifluoromethyl)phenol], in that order: 23 nM and more than 10000 nM.
The corresponding values for `Cc1cc(C)c(-c2ccc(N3CCCc4ccccc43)nn2)c(O)c1` [Example 272, 2-[6-(3,4-dihydro-2H-quinolin-1-yl)pyridazin-3-yl]-3,5-dimethyl-phenol] are 2340 nM and 6580 nM.
On to `CCN1CC[C@H]2CCN(c3ccc(-c4c(C)cc(C(F)(F)F)cc4O)nn3)[C@H]2C1` (single isomer, unassigned) [Example 429], for which the IC50 at NLRP3 inflammasome was less than 0.36 nM; in assay [1] it was more than 10000 nM.
In the case of `Cc1cc(C(F)(F)F)cc(O)c1-c1nnc(N2CCO[C@H](CO)C2)cc1C(F)F` [Example 248, 2-[4-(difluoromethyl)-6-[(2S)-2-(hydroxymethyl)morpholin-4-yl]pyridazin-3-yl]-3-methyl-5-(trifluoromethyl)phenol], the results for the IC50 (at NLRP3 inflammasome; in assay [1]) were 81 nM and more than 10000 nM, respectively.
With `Cc1cc(C)c(-c2ccc(N3CCO[C@@H](CC(N)=O)C3)nn2)c(O)c1` (single isomer, unassigned) [Example 147], the IC50 at NLRP3 inflammasome is 575 nM; in assay [1], more than 10000 nM.
In the case of `O=C1NCCCN1c1ccc(-c2c(O)cc(Cl)cc2Cl)nn1` [Example 239, 1-[6-(2,4-dichloro-6-hydroxy-phenyl)pyridazin-3-yl]hexahydropyrimidin-2-one], the figures for the IC50 (at NLRP3 inflammasome; in assay [1]) were 200 nM and more than 10000 nM, respectively.
For `Cc1cc(C)c(-c2cc(C#N)c(N3CCO[C@H](CO)C3)nn2)c(O)c1` [Example 158, 6-(2-hydroxy-4,6-dimethyl-phenyl)-3-[(2S)-2-(hydroxymethyl)morpholin-4-yl]pyridazine-4-carbonitrile], in that order: 85 nM and more than 10000 nM.
Consider `Cc1cc(Cl)cc(O)c1-c1ccc(N2CCO[C@@H](CF)C2)nn1` [Example 338, 5-chloro-2-[6-[(2R)-2-(fluoromethyl)morpholin-4-yl]pyridazin-3-yl]-3-methyl-phenol], for which the IC50 at NLRP3 inflammasome is 46 nM; in assay [1] it was more than 10000 nM.
Turning to `Cc1cc(C(F)(F)F)cc(O)c1-c1ccc(N2C[C@H](CO)O[C@H](C)C2)nn1` [Example 302, 2-[6-[(2R,6R)-2-(hydroxymethyl)-6-methyl-morpholin-4-yl]pyridazin-3-yl]-3-methyl-5-(trifluoromethyl)phenol], the IC50 is 13 nM at NLRP3 inflammasome and more than 10000 nM in assay [1].
Turning to `Oc1cc(Cl)cc(Cl)c1-c1ccc(N2CCO[C@H](CF)C2)nn1` (single isomer, unassigned) [Example 238], the IC50 stood at 47 nM on NLRP3 inflammasome and 4290 nM in assay [1].
For `Cc1cc(C)c(-c2ccc(N3C[C@H]4COC[C@H]4C3)nn2)c(O)c1` [Example 206, 2-[6-[(3aS,6aR)-1,3,3a,4,6,6a-hexahydrofuro[3,4-c]pyrrol-5-yl]pyridazin-3-yl]-3,5-dimethyl-phenol], in that order: 325 nM and more than 10000 nM.
As for `CCc1cc(C)c(-c2ccc(N3CCO[C@H](CO)C3)nn2)c(O)c1` [Example 245, 5-ethyl-2-[6-[(2S)-2-(hydroxymethyl)morpholin-4-yl]pyridazin-3-yl]-3-methylphenol], the 50% inhibitory concentration (IC50) is 64 nM on NLRP3 inflammasome and more than 10000 nM in assay [1].
Take `Cc1cc(C)c(-c2ccc(N3CCCc4ccc(O)cc43)nn2)c(O)c1` [Example 217, 1-[6-(2-hydroxy-4,6-dimethyl-phenyl)pyridazin-3-yl]-3,4-dihydro-2H-quinolin-7-ol]: the IC50 at NLRP3 inflammasome was 127 nM; in assay [1], more than 10000 nM.
`Cc1ccc(-c2nnc(N3CC[C@@H]4CCN(C)C[C@@H]43)cc2C)c(O)c1` (racemic) [Example 341, 5-methyl-2-[4-methyl-6-[rac-(3aS,7aR)-6-methyl-3,3a,4,5,7,7a-hexahydro-2H-pyrrolo[2,3-c]pyridin-1-yl]pyridazin-3-yl]phenol]: the results for the half-inhibitory concentration (IC50) (at NLRP3 inflammasome; in assay [1]) were 1 nM and more than 10000 nM, respectively.
Consider `Cc1cc(C)c(-c2ccc(N3CCO[C@@H](CF)C3)nn2)c(O)c1` [Example 220, 2-[6-[(2R)-2-(fluoromethyl)morpholin-4-yl]pyridazin-3-yl]-3,5-dimethyl-phenol], for which the IC50 at NLRP3 inflammasome was 108 nM; in assay [1] it was more than 10000 nM.
Consider `CCN1CC[C@H]2OCCN(c3ccc(-c4c(C)cccc4O)nn3)[C@H]2C1` [Example 412, 2-[6-[(4aS,8aR)-6-ethyl-3,4a,5,7,8,8a-hexahydro-2H-pyrido[4,3-b][1,4]oxazin-4-yl]pyridazin-3-yl]-3-methyl-phenol], for which the IC50 was 18 nM at NLRP3 inflammasome and more than 10000 nM in assay [1].
On to `Cc1cc(C)c(-c2ccc(N3C[C@@H](CO)CC3=O)nn2)c(O)c1` (single isomer, unassigned) [Example 138], for which the values for the concentration for half-maximal inhibition (IC50) (at NLRP3 inflammasome; in assay [1]) were 441 nM and more than 10000 nM, respectively.
With `Cc1cc(C)c(-c2ccc(N3CC(CO)CCC3=O)nn2)c(O)c1` (centres unmarked) [Example 235, 1-[6-(2-hydroxy-4,6-dimethyl-phenyl)pyridazin-3-yl]-5-(hydroxymethyl) piperidin-2-one], the concentration for half-maximal inhibition (IC50) at NLRP3 inflammasome worked out at 70 nM; in assay [1], 7130 nM.
For `CCc1cc(Cl)cc(O)c1-c1ccc(N2CCO[C@@H]3CCN(C(C)=O)C[C@@H]32)nn1` [Example 381, 1-[(4aS,8aR)-4-[6-(4-chloro-2-ethyl-6-hydroxy-phenyl)pyridazin-3-yl]-3,4a,5,7,8,8a-hexahydro-2H-pyrido[4,3-b][1,4]oxazin-6-yl]ethanone], the IC50 at NLRP3 inflammasome is 3 nM; in assay [1] it was more than 10000 nM.
`Cc1cc(C(F)(F)F)cc(O)c1-c1ccc(N2CC[C@@H]3CCN(C)C[C@@H]32)nn1` [Example 392, 2-[6-[(3aS,7aR)-6-methyl-3,3a,4,5,7,7a-hexahydro-2H-pyrrolo[2,3-c]pyridin-1-yl]pyridazin-3-yl]-3-methyl-5-(trifluoromethyl)phenol]: the concentration for half-maximal inhibition (IC50) was 1 nM at NLRP3 inflammasome and more than 10000 nM in assay [1].
